Results on one substance are retold here after patent US6814969B2, “Immunologically significant herpes simplex virus antigens and methods for using same” (University of Washington, priority 2001, dated 2004).

Holding throughout (assay type): cell-based, human
Assay [1] concerns TCC BM.17. The assay can be described thus: T-cell proliferation, TCC BM.17. To be noted: VP16 1-492 at 1 μg/ml, β-gal-VP16 180-492 at 1:1,000, peptides at 1 μM. Here is the method: (§1) Triplicate proliferation assay wells contained 10^4 cloned T-cells, 10^5 irradiated (3300 rad) PBMC or 2.5×10^4 irradiated (8000 rad) EBV-LCL as antigen presenting cells (APC), and antigen in 200 μl T-cell media (D. M. Koelle et al., 1997, Human. Immunol., 53:195-205) in 96-well U-bottom plates. When heat-killed bacteria were used as antigen, the equivalent of 10^5 cfu/well (prior to inactivation) was added and gentamicin (20 μg/ml) was included. After 72 hours, 1 μCi/well ^[3]H thymidine was added for 18 hours, cells were harvested, and incorporation of thymidine evaluated by liquid scintillation counting. Standard deviations were less than 10% of the mean values. Results are reported as mean cpm or as delta cpm=mean cpm for experimental antigen minus mean cpm for control antigen. Control antigen was mock-infected cell lysate for whole viral antigens and pUEX2-derived β-galactosidase for recombinant protein preparations. […]
(§2) Three epitopes within VP16, all HSV-2 type-specific were previously identified (K. R. Jerome et al., 1998, J. Virol., 72:436-441), and proliferative responses to full-length VP16 in bulk cultures of genital HSV-2 lesion-infiltrating lymphocytes from four of seven (57%) patients were detected (D. M. Koelle et al., 1998, J. Clin. Invest., 101:1500-09). […]

Assay [2] has as its system TCC SB.17. In words: T-cell proliferation, TCC SB.17. The note with it: VP16 1-492 at 1 μg/ml, β-gal-VP16 180-492 at 1:1,000, peptides at 1 μM. The protocol:
as §1, §2

The test system of assay [3] is TCC BM.17. The assay can be described thus: Cytolysis assay (4-hour 51Cr release), CD4 TCC BM.17. The note with it: autologous EBV-LCL targets, HSV-2 infected or 1 μM peptide, E:T 20:1. The protocol: (§3) Cytolysis assays were performed in triplicate using 4-hour [^51]Cr release as described (D. M. Koelle et al., 1993, J. Clin. Invest., 91:961-968). […] W. Kwok et al., 1996,J. Exp. Med., 183:1253-1258). The effector to target ratio was 20:1. Spontaneous release was less than 28%.

Assay [4] concerns TCC SB.17. The assay can be described thus: Cytolysis assay (4-hour 51Cr release), CD4 TCC SB.17. To be noted: autologous EBV-LCL targets, HSV-2 infected or 1 μM peptide, E:T 20:1. The protocol: as §3

With “VP16 437-449: HSV-2 VP16 (UL48) peptide, amino acids 437-449 (ADALDDFDLEMLG; UniProt P68336 437-449, looked up, fragment)”, the “delta cpm [3H] thymidine incorporation compared to media” value in assay [1] is 79,723 cpm; in assay [2] it was 36,442 cpm. The figures for the percent specific release in assay [3] and in assay [4] were 28.5% and 60.6%, respectively.
